The assay addresses T1, NADPH oxidase 1 (Homo sapiens, UniProt Q9Y5S8).
T1 sequence (Q9Y5S8 whole entry): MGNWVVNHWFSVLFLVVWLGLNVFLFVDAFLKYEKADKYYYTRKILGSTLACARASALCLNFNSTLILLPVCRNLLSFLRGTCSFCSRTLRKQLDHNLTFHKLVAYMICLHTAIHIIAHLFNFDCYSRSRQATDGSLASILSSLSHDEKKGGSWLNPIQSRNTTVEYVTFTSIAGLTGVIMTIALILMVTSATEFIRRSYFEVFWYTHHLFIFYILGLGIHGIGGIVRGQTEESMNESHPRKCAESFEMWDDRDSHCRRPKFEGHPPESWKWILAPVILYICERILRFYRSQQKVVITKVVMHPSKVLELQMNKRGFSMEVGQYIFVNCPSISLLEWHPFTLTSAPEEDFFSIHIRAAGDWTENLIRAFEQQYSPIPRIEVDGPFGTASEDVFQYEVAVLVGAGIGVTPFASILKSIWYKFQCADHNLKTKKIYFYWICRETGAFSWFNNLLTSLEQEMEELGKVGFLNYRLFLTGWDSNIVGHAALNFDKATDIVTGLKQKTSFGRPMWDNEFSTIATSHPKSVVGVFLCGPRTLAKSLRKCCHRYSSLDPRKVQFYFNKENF
Nature of the assay: HEK293 ROS counter-screen potency – cell-based, IC50, set 2, counter-screen for NOX1 inhibitor project, late-stage follow-up (AID 435002). For orientation: A counterscreen serves to expose hits that act by an unwanted route or on another target.

What is called IC50 is the concentration needed to halve the response being measured. A higher IC50 goes with weaker potency.

In turn, `CN(C)c1ccc(CN=Nc2c(Cl)cncc2Cl)cc1` registered an IC50 of 4 µM. In other words, the single-digit micromolar range.

With `Oc1c(Br)cc(CN=Nc2c(Cl)cncc2Cl)cc1Br` [4-[[2-[3,5-bis(chloranyl)pyridin-4-yl]hydrazinyl]methylidene]-2,6-bis(bromanyl)cyclohexa-2,5-dien-1-one], half-maximal inhibition (IC50) required 10 µM. This IC50 lies about 2.5-fold higher than the previous one.

Source of the values: BindingDB's records for doi:10.7270/Q2SX6BN0 (The Scripps Research Institute Molecular Screening Center, 2010).
